Read-outs that look alike come from different tables or passages of the source.
How the values were obtained:
[1] = test system: basophil cells (human peripheral blood); experiment: Basophil ionomycin activation: histamine release assay; assay type: cell-based
Method in brief: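 Dextran-sedimented leukocytes from peripheral blood of dust-mite-allergic human donors were incubated with compound (8 concentrations, 0.5% DMSO, triplicate) and then stimulated with 2 μM ionomycin stock (20 μl added) for 30 min at 37° C. Histamine released into the supernatant was measured by ELISA.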

[2] = Sheep model of allergic asthma; assay type: in vivo
Protocol: In the sheep model of allergic asthma, sheep are administered aerosols of test article via an endotracheal tube, followed by an aerosol challenge with antigen extracted from the roundworm, Ascaris suum, to which the sheep are naturally allergic. Allergen challenge leads to direct bronchoconstriction (both EAR and LAR) and a persistent non-specific AHR. These three characteristics are similar to those seen in human allergic asthmatics. The activity of the test agent is determined by changes in the lung resistance (RL), which is calculated from measurements of transpulmonary pressure, flow, and respiratory volume. […] The LAR is a less pronounced increase in RL, which starts approximately 5-6 hours following allergen challenge and is resolved by 8 hours post-challenge. Twenty-four hours after the challenge, a dose response to carbachol is measured to determine the AHR, which is expressed as the dose of carbachol required to increase RL by 400% over baseline. (This measurement is referred to as the provocative concentration of carbachol that elicits a 400% increase in RL over baseline (PC400). The data are compared to historical control data for the same individual when administered a saline control aerosol and challenged with Ascaris suum.

Primary T-cells [3] = experiment: Primary T-cell cytokine production (αCD3/αCD28): IL-2; assay type: cell-based, human; settings: read-out: 1° T-Cell IL2 IC50
Method in brief: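 IL-2 in 18 hr supernatants measured by ELISA against a standard curve or by Luminex multiplex, with IC50 derived relative to solvent-only wells. Non-adherent human donor lymphocytes were preincubated 30 min with compound, then moved to wells coated with αCD3 (5 μg/ml) and αCD28 (10 μg/ml).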

[4] = test system: FcγRI-mediated degranulation; experiment: FcγRI-mediated degranulation (anti-human IgG Fab activation); assay type: cell-based; settings: cells not primed with IgE, activated with rabbit anti-human IgG Fab fragment
Primary T-cells [5] = experiment: Primary T-cell cytokine production (αCD3/αCD28): IL-4; assay type: cell-based, human; settings: read-out: 1° T-Cell IL4 IC50
Protocol: (§1) 2E8-4E8 PBMC or proliferating T cells grown in rIL-2 from healthy human donors were suspended in PBS were spun down (1500 rpm, 8-10 minutes) and resuspended in 100 ml RPMI Complete media (1% Pen-Strep, 1% L-Glutamine, 10 mM HEPES). The cells were plated in T175 flasks (37° C., 5% CO2) and monocytes were allowed to adhere for 2-3 hours. After monocyte attachment, non-adherent cells were harvested, counted by hemocytometer, washed several times with PBS then resuspended in Yssels Complete Media (Modified IMDM Media with 1% Human AB Serum, 1% Pen-Strep, 1% L-Glutamine, 10 mM HEPES) at […]. 90 uL of the cell dilution were then added to compounds diluted to 2× in Yssel's media and incubated for 30 minutes at 37° C. (5% CO2). After this preincubation step the compound/cell mixture was transferred to stimulation plates, as described below.
(§2) Stimulation plates were prepared by coating 96 well plates with 5 μg/ml αCD3 (BD PharMingen, Catalog #555336)+10 μg/ml αCD28 (Beckman Coulter, Catalog #IM1376) in PBS (no Ca^2+/Mg^2+) at 37° C. (5% CO2) for at 3-5 hours. After incubation with the stimulation antibodies, the cocktail was removed and the plates washed 3 times with PBS prior to addition of the primary T cell/compound mixture.
(§3) The compound/cell mixture was transferred to the stimulation plates and incubated for 18 hr at 37° C. (5% CO2). After the cell stimulation, ˜150 μl supernatant were transferred from each well into 96-well filter plates (Coming PVDF Filter Plates) spun down (2000 rpm, 2-3 minutes) and either used immediately for ELISA or LUMINEX measurements or frozen down at −80° C. for future use.
(§4) Luminex immunoassay multiplexing for TNF, IL-2, GMSCF, IL-4 and IFNg was performed essentially as described by the manufacturer (Upstate Biotechnology). Essentially 50 uL of sample was diluted into 50 uL assay diluent and 50 uL incubation buffer, then incubated with 100 uL of the diluted detection antibody for 1 hr at RT in the dark. The filter plate was washed 2× in Wash Buffer, then incubated with 100 uL of the diluted secondary reagent (SAV-RPE) for 30 min at RT in the dark. Finally the plates were washed 3 times and bead identification and RPE fluorescent measured by the Luminex instrument.
(§5) Varied concentrations of compound were compared to solvent only to determine the inhibition of T-cell activation IC50 of each compound.

Primary T-cells [6] = experiment: Primary T-cell cytokine production (αCD3/αCD28): GMSCF; assay type: cell-based, human; settings: read-out: 1° T-Cell GMSCF IC50
Protocol: as §1, §2, §3, §4, §5

[7] = basophils, ionomycin activation, histamine release, read-out: Basophils Ionomycin Histamine IC50
[8] = administered in an aqueous suspension
[9] = dose, pretreatment and vehicle per compound as in TABLE 5

SMILES	IC50 [1, 7]	EAR [2, 8]	IC50 (Primary T-cells [3])	inhibition of FcγRI-mediated degranulation [4]	IC50 (Primary T-cells [5])	IC50 (Primary T-cells [6])	EAR [2, 9]	LAR and AHR [2, 9]	IC50 ([1]; read-out: Basophils Ionomycin Histamine)
COc1ccc(Nc2ncc(F)c(Nc3cccc(O)c3)n2)cc1OC [Compound R926113]	> 10000 nM	–	–	–	–	–	–	–	–
COc1ccc(Nc2ncc(F)c(Nc3ccc(OC)c(OC)c3)n2)cc1OC [Compound R926110]	> 10000 nM	–	–	–	–	–	–	–	–
Fc1cnc(Nc2ccc3c(c2)OCCO3)nc1Nc1ccc2c(c1)OCCO2 [Compound R926109]	> 10000 nM	–	–	–	–	–	–	–	–
Oc1cccc(Nc2ncc(F)c(Nc3cccc(O)c3)n2)c1 [Compound R921218]	> 10000 nM	failed to inhibit	3240 nM	inhibit FcγRI-mediated degranulation	–	–	–	–	–
CNC(=O)COc1cccc(Nc2ncc(F)c(Nc3ccc4c(n3)NC(=O)C(C)(C)O4)n2)c1 [Compound R940347]	–	–	1890 nM	inhibit FcγRI-mediated degranulation	212 nM	1610 nM	–	–	–
CNC(=O)COc1cccc(Nc2ncc(F)c(Nc3ccc4c(n3)NC(=O)CO4)n2)c1 [Compound R921304]	–	–	2770 nM	–	366 nM	1570 nM	–	–	–
CNC(=O)COc1cccc(Nc2ncc(F)c(Nc3ccc4c(c3)NCCO4)n2)c1 [Compound R921219]	> 10000 nM	–	546 nM	–	–	–	greatly reduced	blocked	–
CC1(C)Oc2ccc(Nc3ncc(F)c(Nc4ccc5c(c4)NC(=O)C(C)(C)O5)n3)cc2NC1=O [Compound R940350]	–	–	2990 nM	inhibit FcγRI-mediated degranulation	501 nM	2450 nM	–	–	–
COc1cc(Nc2ncc(F)c(Nc3ccc4c(c3)NC(=O)C(C)(C)O4)n2)cc(OC)c1 [Compound R927050]	–	–	928 nM	inhibit FcγRI-mediated degranulation	275 nM	1120 nM	–	–	–
CNC(=O)COc1cccc(Nc2ncc(F)c(Nc3cccc(O)c3)n2)c1 [Compound R926508]	> 10000 nM	–	917 nM	–	–	–	greatly reduced	blocked	–
Nc1cccc(Nc2ncc(F)c(Nc3cccc(N)c3)n2)c1 [Compound R921302]	–	failed to inhibit	5180 nM	inhibit FcγRI-mediated degranulation	245 nM	3210 nM	unaffected	blocked	> 10000 nM
CNC(=O)COc1cccc(Nc2ncc(F)c(Nc3ccc4c(c3)NC(=O)C(F)(F)O4)n2)c1 [Compound R921303]	–	–	1020 nM	inhibit FcγRI-mediated degranulation	366 nM	1180 nM	–	–	–
CNC(=O)COc1cccc(Nc2ncc(F)c(Nc3ccc(OC(F)(F)F)c(Cl)c3)n2)c1 [Compound R920410]	–	–	3360 nM	inhibit FcγRI-mediated degranulation	546 nM	3200 nM	–	–	–
CC1(C)Oc2ccc(Nc3nc(Nc4cc(Cl)cc(Cl)c4)ncc3F)cc2NC1=O [Compound R927064]	–	–	> 10000 nM	–	–	> 10000 nM	–	–	–

Reference: US8158621B2, “Methods of treating or preventing autoimmune diseases with 2,4-pyrimidinediamine compounds” (Rigel Pharmaceuticals, Inc., priority 2002, dated 2012)
